Laboratory results published in publication PMC12362587, “Untargeted Diversity-Oriented Synthesis for the Discovery of New Antitumor Agents: An Integrated Approach of Inverse Virtual Screening, Bioinformatics, and Omics for Target Deconvolution” (Journal of Medicinal Chemistry, 2025).

Key:
[1] = target: T1, Poly [ADP-ribose] polymerase 1 (Homo sapiens, UniProt P09874); assay: PARP1 Colorimetric Assay Kit (BPS Bioscience); assay type: biochemical; conditions: top concentration 30 μM; read-out: EC50 or IC50, Poly [ADP-ribose] polymerase 1
T1 construct: purchased BPS Bioscience
T1 sequence (P09874 whole entry): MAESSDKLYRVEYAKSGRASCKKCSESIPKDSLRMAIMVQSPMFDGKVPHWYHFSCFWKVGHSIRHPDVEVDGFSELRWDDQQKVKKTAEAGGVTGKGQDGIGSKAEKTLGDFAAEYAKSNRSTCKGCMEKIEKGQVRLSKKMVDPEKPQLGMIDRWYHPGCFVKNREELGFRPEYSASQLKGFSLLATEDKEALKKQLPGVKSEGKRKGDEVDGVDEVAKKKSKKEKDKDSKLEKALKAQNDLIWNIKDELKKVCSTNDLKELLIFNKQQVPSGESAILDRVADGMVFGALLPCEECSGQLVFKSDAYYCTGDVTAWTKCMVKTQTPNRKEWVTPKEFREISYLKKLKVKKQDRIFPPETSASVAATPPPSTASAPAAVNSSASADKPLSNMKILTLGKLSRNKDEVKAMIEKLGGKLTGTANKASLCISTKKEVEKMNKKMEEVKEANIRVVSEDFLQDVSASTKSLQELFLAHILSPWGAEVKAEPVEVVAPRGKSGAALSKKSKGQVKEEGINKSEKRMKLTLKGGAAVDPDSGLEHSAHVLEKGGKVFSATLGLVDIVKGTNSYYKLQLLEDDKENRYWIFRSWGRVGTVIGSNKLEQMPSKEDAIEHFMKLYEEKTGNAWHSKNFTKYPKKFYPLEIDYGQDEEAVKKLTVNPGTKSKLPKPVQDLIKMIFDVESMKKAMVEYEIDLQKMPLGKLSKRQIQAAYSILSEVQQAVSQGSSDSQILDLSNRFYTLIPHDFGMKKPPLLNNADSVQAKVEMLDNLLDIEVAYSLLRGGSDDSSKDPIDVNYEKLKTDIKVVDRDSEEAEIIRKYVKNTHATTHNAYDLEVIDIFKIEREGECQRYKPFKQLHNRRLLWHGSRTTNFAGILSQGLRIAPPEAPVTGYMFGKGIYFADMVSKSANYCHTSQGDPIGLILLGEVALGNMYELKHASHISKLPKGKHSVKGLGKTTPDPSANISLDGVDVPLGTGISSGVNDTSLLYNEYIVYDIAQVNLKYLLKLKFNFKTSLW
Procedure: The assay was performed in a volume of 50 μL in 96-well transparent plates. The PARP1 assay kit (BPS Bioscience, USA) was performed by first coating the 96-well plate with histone proteins, then left at 4 °C overnight. Next, Poly [ADP-ribose] polymerase 1 (PARP1) enzyme (final concentration, 0.33 ng per reaction), a mixture of biotinylated NAD^+ (PARP substrate) and compounds were incubated for 1 h at room temperature. The compounds were added at different concentrations in the reaction buffer, starting from a final concentration of 30 μM. Buffer with the same amount of DMSO (1%) was used as a negative control. After incubation, the plate was treated with streptavidin-HRP followed by the addition of the colorimetric HRP substrate generating a colored solution. The generated signal was read at an absorbance of 450 nm using a microplate reader with UV/vis spectrophotometer (Multiskan Go, Thermo Fisher Scientific, Waltham, MA, USA). Experiments were performed in triplicate. IC50 values were calculated with GraphPad Prism 8.0 software by nonlinear dose–response inhibition regression.

A375 cells = assay: Intracellular ROS measurement (DCFH-DA); assay type: cell-based, human; conditions: 10, 5, 2.5 μM for 2–8 h
Procedure: Cells were treated with compounds 31 and 63 (10, 5, and 2.5 μM) for 2–8 h, and ROS levels were subsequently measured.
The intracellular ROS generation was detected using 10 μM DCFH-DA. This compound is oxidized by ROS to fluorescent […] (DCF) inside the cells. A375 cells were seeded (5 × 10^3 cells/well) in a volume of 100 μL per well in black 96-well OptiPlate (PerkinElmer, USA), allowing them to adhere for 24 h. After, the cells were incubated for 2, 4, and 8 h with compounds (10, 5, and 2.5 μM). Subsequently, the cells were washed twice with PBS and a staining solution containing DCFH-DA in serum-free medium without phenol red was added for 30 min at 37 °C in the dark. The stained cells were washed, and the fluorescence signals (excitation/emission 485 nm/535 nm) were read using a PerkinElmer EnSpire multimode plate reader and expressed as DCFH fluorescence intensity.

MTT cell viability assay = assay type: cell-based, human; conditions: human, HaCaT keratinocyte cells (healthy control line), 24 h, compounds 0.01–40 μM, healthy control line, read-out: In Vitro Cytotoxicity, EC50 ± SD, HaCaT
Text: (§1) Initially, we phenotypically screened the synthesized compounds over a panel of tumor cell lines composed of HEPG2, A375, SHSY5Y, MCF7, and A549 derived from liver tumor, melanoma, neuroblastoma, breast cancer, and lung adenocarcinoma, respectively. We also considered the HaCaT cell line, coming from keratinocytes, as a healthy control line. As reference, cytotoxic chemotherapeutic agent 5-fluorouracil (5-FU) has been used. The results obtained performing the MTT (3-(4,5-dimethylthiazolyl-2)-2,5-diphenyltetrazolium bromide) assay are summarized in Table .
The human neuroblastoma SHSY5Y, melanoma A375, human breast cancer MCF7, nonsmall lung cancer A549, and human epidermal keratinocyte HaCaT cell lines were obtained from ATCC and were grown in Dulbecco’s Modified Eagle Medium (DMEM) supplemented with 10% (v/v) FBS, 2 mM L-glutamine, 100 U/mL penicillin, and 0.1 mg/mL streptomycin.
(§2) Cell viability was established by measuring mitochondrial metabolic activity with MTT. In brief, HEPG2 (1 × 10^4 cells/well), A375 (2 × 10^3 cells/well), HaCaT (3 × 10^3 cells/well), A549 (3 × 10^3 cells/well), SHSY5Y (2 × 10^4 cells/well), and MCF 7 (5 × 10^3 cells/well) were plated into 96-well plates for 24 h, then the compounds (0.01–40 μM) were added. After 24h, cells were replaced with a fresh medium containing 0.5 mg/mL MTT. Cells were incubated 1–3 h at 37 °C, then the medium was discarded, and formazan blue crystals in the cells were dissolved in 100 μL per well of a solution containing isopropanol/HCl 0.1 M. The absorbance was measured at 570 nm using a microplate reader (Multiskan Go, Thermo Scientific, Waltham, MA, USA). Cell viability was expressed as a percentage relative to the untreated cells cultured in medium with 0.1% DMSO and set to 100%, whereas 10% DMSO was used as positive control and set to 0% of viability. The EC50 values were calculated using GraphPad Prism 8.0 software by nonlinear regression of dose–response inhibition.

HEPG2 = assay: MTT cell viability assay; assay type: cell-based; conditions: Homo sapiens, 24 h, compounds 0.01–40 μM, read-out: In Vitro Cytotoxicity, EC50 ± SD, HEPG2
Text: as §1
The human hepatoma HEPG2 cell line was obtained from American Type Culture Collection (ATCC, Rockville, MD, USA). Cells were grown in Eagle’s Minimum Essential Medium (EMEM) supplemented with 10% (v/v) fetal bovine serum (FBS), 2 mM L-glutamine, 1% (v/v) nonessential amino acids, 100 U/mL penicillin, and 0.1 mg/mL streptomycin.
as §2

Cathepsin K = target: T2, Cathepsin K (Homo sapiens, UniProt P43235); assay: Cathepsin K Inhibitor Screening Assay Kit (BPS Bioscience); assay type: biochemical; conditions: top concentration 30 μM; read-out: EC50 or IC50, Cathepsin K
T2 construct: purchased BPS Bioscience
T2 sequence (P43235 115-329): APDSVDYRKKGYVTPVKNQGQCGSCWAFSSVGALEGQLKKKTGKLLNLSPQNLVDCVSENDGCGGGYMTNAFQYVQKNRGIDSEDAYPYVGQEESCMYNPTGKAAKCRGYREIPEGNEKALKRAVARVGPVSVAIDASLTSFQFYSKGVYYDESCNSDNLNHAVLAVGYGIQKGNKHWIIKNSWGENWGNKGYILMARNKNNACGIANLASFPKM
Procedure: The assay was performed in a volume of 50 μL in a 96-well black plate. The Cathepsin K inhibitor assay (BPS Bioscience, USA) was designed to measure protease activity by the presence of an internally quenched fluorogenic substrate. Upon cleavage by Cathepsin K (CTSK), the fluorescence of the substrate increases dramatically. For the activity measurement, protease (final concentration, 0.5 ng per reaction), the Fluorogenic Cathepsin K Substrate (final concentration, 70 μM), E-64 (known inhibitor, as positive control) or compounds were incubated for 1 h at room temperature. The compounds were added at different concentrations in the reaction buffer, starting with a final concentration of 30 μM. Buffer with the same amount of DMSO (1%) was used as a negative control. After the incubation time, the fluorescence signals (excitation/emission, 360 nm/460 nm) were read with a PerkinElmer EnSpire multimode plate reader (PerkinElmer, Waltham, MA, USA). Experiments were performed in triplicate. IC50 values were calculated with GraphPad Prism 8.0 software by nonlinear dose–response inhibition regression.

Row | IC50 [1] [µM] | IC50 (Cathepsin K) [µM] | SMILES | intracellular ROS levels (A375 cells) | EC50 at 24 h (MTT cell viability assay) [µM] | EC50 (HEPG2) [µM]
1 | > 30 | > 30 | CC(C)C[C@H]1C(=O)N(Cc2ccc(C(F)(F)F)cc2)c2ccccc2C(=O)N1Cc1ccc(C(F)(F)F)cc1 [Compound 31, (S)-3-Isobutyl-1,4-bis(4-(trifluoromethyl)benzyl)-3,4-dihydro-1H-benzo[e][1,4]diazepine-2,5-dione] | significant concentration-dependent increase in ROS levels | > 40 | 12 ± 3.51
2 | > 30 | > 30 | CC(C)C[C@@H](C(=O)OCc1ccccc1)N1Cc2ccccc2NC1=O [Compound 63, Benzyl (S)-4-Methyl-2-(2-oxo-1,4-dihydroquinazolin-3(2H)-yl)pentanoate] | delayed and more moderate effect than compound 31 | 21.4 ± 0.78 | 2.17 ± 0.96
